Values of other authors as cited in US6689302B2, “Method of making an antimicrobial tympanostomy tube” (Medtronic Xomed, Inc., priority 1993, dated 2004).

Tested on: postoperative otorrhea
Settings: Baker and Chole trial; ophthalmic solution used as otic drops

Gentamicin
incidence of infection: significantly reduced
